These results are taken from patent publication US12268665B2, “Combination of immunotherapies with MDM2 inhibitors” (ASCENTAGE PHARMA (SUZHOU) CO., LTD., priority 2018, dated 2025).

One series deals with MH-22A cells. The series can be described thus: PD-L1 expression on tumor cells (Western blotting, flow cytometry). The format is cell-based, mouse. Particulars: 72 h. The protocol: Transcription factor p53 is involved in the regulation of PD-L1 expression (Cortez M A, 2015), which might serve as an indicator of the efficacy of anti-PD-1/PD-L1 treatment. Besides the effects on T cells, how APG-115 effects PD-L1 expression on MH-22A tumor cells was also investigated in vitro.
MH-22A cells were treated with indicated doses of APG-115 for 72 h. The expression levels of MDM2, p53, total STAT3 (t-STAT3), phosphorylated STAT3 (p-STAT3), PD-L1, and β-actin (loading control) expression were determined by Western blotting. PD-L1 expression levels which were reflected by fluorescence intensity were determined by flow cytometry.
(In western blotting, separated proteins are transferred to a membrane and probed.)

Series [1] relates to MH-22A murine hepatoma syngeneic model. The series can be described thus: In vivo efficacy study in MH-22A model. Also on record: species or system mouse. The settings on record: for RTV (Mean ± SEM) d15 / T/C (%) d15: anti-PD-1 10 mg/kg i.p. biw; for Response rate (%) d15: anti-PD-1 10 mg/kg, n=10. The protocol: Tumor volumes were measured twice weekly in two dimensions using a caliper, and the volume was expressed in mm^3 using the formula: Tumor Volume(mm^3)=0.5a×b^2 where a and b are the long and short diameters of the tumor, respectively.
Relative tumor volume (RTV) was calculated using the following formula: RTV=Vt/V1 Where V1 and Vt are the average tumor volumes on the first day of treatment (day 1) and the average tumor volumes on a certain time point (day t).
Synergy score was calculated using the following formula (Clarke R, Breast Cancer Research & Treatment, 1997, 46(2-3):255-278): Synergy score=((A/C)×(B/C))/(AB/C); A: response to treatment A; B: response to treatment B; C: response to vehicle control; AB: combination of treatment A and B.
Standard NCI procedures were used to calculate tumor parameters. Percent tumor growth inhibition (% T/C) was calculated as the mean RTV of treated tumors (T) divided by the mean RTV of control tumors (C)×100%. The percentage T/C value is an indication of antitumor effectiveness: a value of T/C<42% is considered significant antitumor activity by the NCI. A T/C value <10% is considered to indicate highly significant antitumor activity, and is the level used by the NCI to justify a clinical trial if toxicity and certain other requirements are met (termed DN-2 level activity). A body weight loss nadir (mean of group) of greater than 20%, or greater than 20% of drug deaths are considered to indicate an excessively toxic dosage.
Each mouse was inoculated subcutaneously at the right flank region with MH-22A tumor cells (5×10^6) in 0.2 mL of PBS for tumor development. The treatments were initiated when the mean tumor size reached ˜65 mm^3. The test articles were administered to the tumor-bearing mice according to the regimen shown in the experimental design Table 3. The day of start dosing was defined as d1.

The subject of series [2] is tumor infiltrating cells in MH-22A syngeneic tumors. The series can be described thus: TIL analysis by flow cytometry, p53 wt MH-22A syngeneic tumors. Particulars: p53 wt MH-22A tumors. The format is in vivo. As for the experimental part:
(§1) The live/dead fixable dye (Invitrogen) was used to exclude dead cells. The FOXP3 kit from eBioscience was used for FOXP3 staining. Cells were washed and stained for 30 min on ice with indicated antibodies in MACS buffer or Brilliant staining buffer. Samples were than analyzed on Life Technology Attune NxT flow cytometer.
Mice were euthanized on day 7, and tumors were mechanically dissociated and digested with Collagenase IV (Sigma), hyaluronic acid (Sigma) and DNase (Sigma). Single-cell suspensions were prepared and stained against the indicated markers for flow cytometry analysis. Tumor samples were collected 24 hrs post last dosing.
On d7, when the mean tumor volume reached approximately 300-500 mm3, syngeneic tumors were collected and processed for TIL analysis. […] There were approximately a 1.5 to 2-fold increase relative to the control. […] Most strikingly, the frequency of M2 macrophages was reduced by the combined therapy in comparison with both control (P<0.01) and anti-PD-1 single agent groups (P<0.05).
For orientation: A flow cytometer gives signals particle by particle.

In series [3] the test system is tumor infiltrating cells in MC38 tumors. The series can be described thus: TIL analysis by flow cytometry, p53mut MC38 tumors. The format is in vivo. The protocol: as §1
In series [4] the test system is advanced soft tissue sarcoma and other solid tumors. The series can be described thus: Phase I study CTR20170975: antitumor activity. The format is in vivo, human. As for the experimental part:
(§2) Patients with advanced soft tissue sarcoma (STS), adenoid cystic carcinoma (ACC) or other solid tumors in China (CTR20170975) were treated with APG-115. In dose escalation, patients received APG-115 (100-200 mg) orally QOD for first 21 days of a 28-day cycle, until disease progression. Study objectives include safety (primary endpoint), pharmacokinetics (PK), pharmacodynamics (PD), and antitumor activity assessed every 8 weeks.
(§3) This is a Phase I study (CTR20170975) is designed to assess the safety, dose-limiting toxicities (DLT), the maximum tolerated dose (MTD)/recommended phase 2 dose (RP2D), pharmacokinetics (PK), pharmacodynamics (PD) profile and anti-tumor activity of orally administered APG-115 in Chinese patients with advanced soft tissue sarcoma and other solid tumors.
Among of the 14 patients, post baseline tumor measurements were obtained in 13 patients, as one subject was just starting the treatment of Cycle 2.

Another series is described as follows: clinical. Also on record: species or system human. Particulars: in vivo. The protocol:
as §2, §3

Series [5] deals with serum MIC-1 (PD marker of TP53 activation). The series can be described thus: Phase I study CTR20170975: pharmacodynamics. The format is in vivo, human. As for the experimental part:
as §2, §3

Series [6] has the same test system. The series can be described thus: Phase I study APG-115-US-001: pharmacodynamics. The format is in vivo, human. Particulars: within the dose range tested. The text has this: This Phase I study (APG-115-US-001) was designed to assess safety, toxicity, pharmacokinetics (PK), pharmacodynamics (PD), and antitumor activity of APG-115 orally in patients with advanced solid tumors in US (NCT02935907).

A further series has as its system serum MIC-1. The series can be described thus: Phase Ib/II study with pembrolizumab: pharmacodynamics. The format is in vivo, human. Particulars: after APG-115 treatment, preliminary. As for the experimental part: In the dose escalation study, APG-115 is combined with pembrolizumab of for the treatment of patients with metastatic solid tumor. Four dose levels of APG-115 are tested: 50, 100, 150, and 200 mg. APG-115 is administrated orally every other day (QOD) for consecutive 2 weeks of a 21-day-cycle. Pembrolizumab is administrated at 200 mg IV on day 1 of a 21-day-cycle. The primary objectives of the dose escalation study is to determine safety, tolerability, and determination of MTD and RP2D; other anti-tumor assessments (assessed per RECIST v1.1 every 6 weeks) are the secondary objectives.

[7] abbreviates: APG-115 10 mg/kg p.o. qd, epacadostat 100 mg/kg p.o. bid.

Molecules are shown by their SMILES.

The Tmax is the time at which the peak concentration occurs. Consider `CCN1[C@@H](C(=O)NC23CCC(C(=O)O)(CC2)CC3)[C@H](c2cccc(Cl)c2F)[C@]2(C(=O)Nc3cc(Cl)ccc32)C12CCCCC2` [APG-115], for which the “expression of TP53 and pSTAT3 proteins” value with MH-22A cells (Western blotting) is listed as “upregulated in a dose-dependent manner”. Besides, the “surface expression of PD-L1” value in the series with MH-22A cells (flow cytometry) is “dose-dependent increase”. Besides, the “RTV (Mean ± SEM) d15” value in series [1] (setting [7]) was 37.8 ± 6.8; in series [1] (APG-115 50 mg/kg p.o. qd) it was 36.2 ± 8.7. The “T/C (%) d15” value in [1] (setting [7]) turned out to be 98%; in [1] (APG-115 50 mg/kg p.o. qd), 94%. The “Response rate (%) d15” value is recorded as 0% in series [1] (APG-115 10 mg/kg, epacadostat 100 mg/kg) and 0% in series [1] (APG-115 50 mg/kg). In series [1] (APG-115 10 and 50 mg/kg, epacadostat 100 mg/kg), the “antitumor activity as single agents” value is given as “did not exert antitumor activity”. In addition, the “CD4+ T cells, NK cells, MDSCs, and regulatory T (Treg) cells” value in series [2] and in series [3] was “no significant changes” throughout. In series [4] (150 mg, after 4 months withdraw, RECIST), the “target lesion decrease in the PR patient” value is roughly 64%. In addition, the “confirmed PR (Partial Response), patients” value in [4] (150 mg, lipomatoid liposarcoma, TP53-WT and MDM2 Amp) is 1. For the same molecule, in [4] (150 mg, liposarcoma with MDM2 amplification and TP53 wt (Example 5)), the “partial response, patients” value is 1. In addition, the “patients with SD as the best overall response” value in series [4] (13 patients (Example 5)) is reported as 5. Moreover, the Tmax in the series “clinical” (human) was in the range of 4 to 6 h. In addition, the “AUC and Cmax versus dose” value in “clinical” is listed as “generally increase dose proportionally”. Besides, the “Cmax and AUC0-t versus dose” value in the series “clinical” (po) is “approximately dose proportional increase”. Besides, the “serum MIC-1 levels” value in [5] (APG-115 doses ≥100 mg, preliminary) is recorded as “elevated from individual baseline”; in the series on serum MIC-1, “elevated”. In series [5] (within the dose range tested (Example 5)), the MIC-1 increase result is “exposure dependent”. The “Serum MIC-1 increase” value in [5] (within the dose range tested (Example 8)) and in series [6] was “exposure dependent” throughout.
